Here are results for 14 compounds from patent US20100267555A1, “Fungicidal mixtures II” (BASF SE, priority 2007, published 2010).

The structures appear in SMILES notation. Where two headings read alike, the source gives them in different places.

Common to all, as to assay type: cell-based
The subject of one assay is Phytophthora infestans. As to conditions: single active compound, 7 days after inoculation.
Another assay deals with Pyricularia oryzae. Description: microbe, parasite or virus in culture. Particulars: 7 days after inoculation; for inhibition of growth at 0.063 ppm: read-out: Observed efficacy, single active compound, 0.063 ppm; for inhibition of growth at 4 ppm: read-out: Observed efficacy, single active compound, 4 ppm; for Observed efficacy: single active compound; for inhibition of growth at 16 ppm: read-out: Observed efficacy, single active compound, 16 ppm.

A further assay concerns Septoria tritici. In words: Activity against leaf blotch on wheat caused by Septoria tritici in the microtiter test (Septtr). As to conditions: single active compound, day 7 after inoculation.

For the compound `Cc1ccc(-c2c(Cl)nc(C#N)n2S(=O)(=O)N(C)C)cc1` [Cyazofamid, 4-chloro-2-cyano-N,N-dimethyl-5-(4-methylphenyl)-1H-imidazole-1-sulfonamide, reference compound], the Observed efficacy in the assay with Phytophthora infestans (0.016 ppm) is 56%.
For the compound `COC=C(C(=O)OC)c1ccccc1COc1cccc(C(F)(F)F)n1` [Picoxystrobin, methyl 3-methoxy-2-[2-(6-trifluoromethylpyridin-2-yloxymethyl)phenyl]acrylate, reference compound], in the assay on Pyricularia oryzae (Pyricularia oryzae, 168 h), the inhibition of growth at 0.063 ppm is 49%.
In the case of `COC(=O)Nc1nc2ccccc2[nH]1` [Carbendazim, methyl (1H-benzoimidazol-2-yl)-carbamate, reference compound], in the assay on Pyricularia oryzae (Pyricularia oryzae, 168 h, read-out: Observed efficacy, single active compound, 0.25 ppm), the inhibition of growth at 0.25 ppm worked out at 19%.
`OC(Cc1ccccc1Cl)(Cn1nc[nH]c1=S)C1(Cl)CC1` (stereo not shown) [Prothioconazol, 2-[2-(1-chlorocyclopropyl)-3-(2-chlorophenyl)-2-hydroxypropyl]-2,4-dihydro-[1,2,4]triazole-3-thione, reference compound]: the inhibition of growth at 4 ppm in the assay with Pyricularia oryzae (Pyricularia oryzae, 168 h) was determined as 15%.
As to `O=C(OCc1cccc(C(F)(F)F)c1)[C@H](c1cccs1)[C@@H](O)c1cccnc1` [I.59-RR, 3-trifluoromethylphenylmethyl 3-hydroxy-2-(2-thienyl)-3-(3-pyridyl)propanoate], the inhibition of growth at 4 ppm in the assay on Pyricularia oryzae (Pyricularia oryzae, 168 h) worked out at 0%. Moreover, the Observed efficacy is 8% with Pyricularia oryzae (16 ppm) and 7% in the assay on Phytophthora infestans (4 ppm).
Turning to `Cc1ccc(C(C)NC(=O)[C@@H](NC(=O)OC(C)C)C(C)C)cc1` (stereo partly drawn) [Iprovalicarb, isopropyl [(1S)-2-methyl-1-(1-p-tolylethylcarbamoyl)propyl]carbamate, reference compound], the Observed efficacy in the assay with Phytophthora infestans (0.25 ppm) was 9%.
For `O=C(OCc1cccc(C(F)(F)F)c1)[C@H](c1ccc(F)cc1F)[C@@H](O)c1cccnc1` [I.57-RR, 3-trifluoromethylphenylmethyl 3-hydroxy-2-(2,4-difluorophenyl)-3-(3-pyridyl)propanoate], the Observed efficacy in the assay on Septoria tritici (0.063 ppm) came out at 4%; in the assay on Phytophthora infestans (0.016 ppm), 0%.
For `O=C(OCc1cccc(C(F)(F)F)c1)[C@H](c1cccs1)[C@@H](O)c1cccnc1` (stereo in doubt) [I.59-RS, 3-trifluoromethylphenylmethyl 3-hydroxy-2-(2-thienyl)-3-(3-pyridyl)propanoate], the inhibition of growth at 0.063 ppm in the assay with Pyricularia oryzae (Pyricularia oryzae, 168 h) is 1%. The inhibition of growth at 16 ppm with Pyricularia oryzae (Pyricularia oryzae, 168 h) was found to be 14%. The Observed efficacy with Pyricularia oryzae (4 ppm) was found to be 0%; in the assay on Septoria tritici (4 ppm), 14%; in the assay with Phytophthora infestans (4 ppm) it was 11%.
As to `O=C(OCc1cccc(C(F)(F)F)c1)[C@H](c1ccc(F)cc1F)[C@@H](O)c1cccnc1` (stereo in doubt) [I.57-RS, 3-trifluoromethylphenylmethyl 3-hydroxy-2-(2,4-difluorophenyl)-3-(3-pyridyl)propanoate], the inhibition of growth at 4 ppm in the assay with Pyricularia oryzae (Pyricularia oryzae, 168 h) is 0%. For the same compound, the inhibition of growth at 16 ppm with Pyricularia oryzae (Pyricularia oryzae, 168 h) was determined as 9%. In addition, the Observed efficacy in the assay with Septoria tritici (4 ppm) came out at 26%; with Phytophthora infestans (4 ppm), 3%.
Take `CO/N=C(/C1=NOCCO1)c1ccccc1Oc1ncnc(Oc2ccccc2Cl)c1F` [Fluoxastrobin, (E)-{2-[6-(2-chlorophenoxy)-5-fluoropyrimidin-4-yloxy]phenyl}(5,6-dihydro-1,4,2-dioxazin-3-yl)methanone O-methyloxime, reference compound]: the inhibition of growth at 0.063 ppm with Pyricularia oryzae (Pyricularia oryzae, 168 h) was 57%. The Observed efficacy with Septoria tritici (0.25 ppm) is 58%.
Regarding `CC(C)NC(=O)N1CC(=O)N(c2cc(Cl)cc(Cl)c2)C1=O` [Iprodione, N-isopropyl-3-(3,5-dichlorophenyl)-2,4-dioxoimidazolidine-1-carboxamide, reference compound], in the assay with Pyricularia oryzae (Pyricularia oryzae, 168 h), the inhibition of growth at 4 ppm was determined as 18%.
Take `Cc1cc(C2CC2)nc(Nc2ccccc2)n1` [Cyprodinil, (4-cyclopropyl-6-methylpyrimidin-2-yl)phenylamine, reference compound]: in the assay on Pyricularia oryzae (Pyricularia oryzae, 168 h), the inhibition of growth at 4 ppm stood at 71%.
Consider `N#Cc1c(Cl)c(Cl)c(Cl)c(C#N)c1Cl` [Chlorothalonil, 2,4,5,6-tetrachloroisophthalonitrile, reference compound], for which the Observed efficacy in the assay with Phytophthora infestans (0.25 ppm) came out at 16%.
The compound `Fc1ccc([C@]2(Cn3cncn3)O[C@H]2c2ccccc2Cl)cc1` (racemic) [Epoxiconazole, (2RS,3SR)-1-[3-(2-chlorophenyl)-2,3-epoxy-2-(4-fluorophenyl)propyl]-1H-1,2,4-triazole, reference compound] yielded an Observed efficacy in the assay on Septoria tritici (0.063 ppm) of 50%.
